# System: 485176-168-R4-J1-PDC complex spheroid growth
# Experiment: Anticancer human tumor 485176-168-R4-J1-PDC patient-derived pancreatic adenocarcinoma cell line growth inhibition [RAS]
# Details: for IC50: curve of first compound; for viability, T/C: stronger effect = lower value
# From the text: RAS pathway inhibitors in Combinations in Complex Spheroids
# A high-throughput screen of multi-cell type tumor spheroids was designed to identify active combinations of RAS pathway inhibitors and targeted small molecules. Complex spheroids include a stromal component modeled by human endothelial cells (HUVEC) and fibroblasts modeled by human mesenchymal stem cells (MSCs). The concentration ranges selected for each drug and investigational agent were based upon clinically achievable concentrations if the clinical Cmax of the agent was known.
# Compounds. The drugs and investigational agents: abemaciclib (NSC768073), cobimetinib (NSC768068), divarasib (GDC6063, NSC841802), docetaxel (NSC628503), GDC-1971 (RLY-1971, NSC841576), gemcitabine (NSC613327), inavolisib (NSC800729), ipatasertib (NSC767898), KB-0742 (NSC834161), MRTX-1133 (NSC836407), osimertinib (NSC779217), RMC-4630 (NSC839698), RMC-6236 (NSC851965), RMC-6291 (NSC852671), Ro-3306 (NSC812927), sapanisertib (NSC764658), SN-38 (NSC673596), staurosporine (NSC755774), SY5609 (NSC837396), and tovorafenib (DAY101, NSC766906), were obtained from the National Cancer Institute (NCI) Developmental Therapeutics Program Chemical Repository. The FDA-approved anticancer drug set is available from the NCI Developmental Therapeutics Program. […] The stock solutions were prepared in dimethyl sulfoxide (DMSO, Sigma-Aldrich, St. Louis, MO, cat. D2650) at 800-fold the tested concentration and stored at -70 degrees C prior to their use. All drugs and investigational agents were tested over a range starting from a high concentration at or near the clinical Cmax and decreasing in half-log increments. If the clinical Cmax for an agent had not been determined, the highest concentration tested was 10 microM.
# Cell Culture. All cells were maintained in an incubator at 37 degrees C and 5% CO2 with 95% humidity. The PDC lines were cultured according to standard operating procedures established by the NCI PDMR. All PDCs were thawed and cultured in Matrigel-coated flasks prepared with a working solution of 1X Ham's F-12 nutrient mix, without supplementation (Invitrogen, Waltham, MA, cat. 11765054), 100 U/mL penicillin-streptomycin (Invitrogen, cat. 15140122), and 2.5% Matrigel (Corning Inc., Corning, NY, cat. 354248) for the first three passages. The 362531-283-R-J2-PDC and 782815-120-R-J1-PDC lines were cultured in 6C/Colon 1B media, which includes advanced DMEM/F-12 (Thermo Fisher Scientific, cat. 12634028), 10 mM HEPES (Thermo Fisher Scientific, cat. 15630080), 1X GlutaMAX supplement (Thermo Fisher Scientific, cat. 35050061), 0.1 mg/mL primocin (InvivoGen, San Diego, CA, cat. ant-pm-2), 10% defined fetal bovine serum, heat inactivated (HyClone Laboratories Inc., Logan, UT, cat. SH30070.03HI), 50% L-WRN conditioned media (ATCC, cat. CRL-3276), 1.25 mM N-Acetyl-L-cysteine (Sigma-Aldrich, cat. A9165), 10 mM nicotinamide (Sigma-Aldrich, cat. N0636), 1X B-27 supplement (Thermo Fisher Scientific, cat. 17504044), 1X N-2 supplement (Thermo Fisher Scientific, cat. 17502048), 50 ng/mL human EGF (Thermo Fisher Scientific, cat. PHG0311), and 10 microM Y-27632 dihydrochloride (Tocris Bioscience, cat. 1254). The K12877-001-R-J1-PDC line was cultured in 6I media, which includes all 6C/Colon 1B media plus 10 ng/mL human FGF-10 (PeproTech, cat. 100-26), 1 ng/mL human FGF-2 (PeproTech, cat. 100-18B), 1 µM prostaglandin E2 (Tocris Bioscience, cat. 2296), […] hydrocortisone (Sigma-Aldrich, cat. H4001), and […] bovine insulin (Sigma-Aldrich, cat. I6634). The K86415-001-R-J1-PDC line was cultured in 6D media, which includes all 6C/Colon 1B media components minus the L-WRN conditioned media. The 485176-168-R4-J1-PDC was cultured in PANC media, which includes all 6C/Colon 1B media plus 100 ng/mL human FGF-10 (PeproTech, cat. 100-26), 500 nM SB-431542 (Selleckchem, cat. S1067), and 10 nM gastrin (Tocris Bioscience, cat. 3006). […]
# 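Also: spheroids exposed to compounds for seven days before readout.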
# 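For viability, T/C in this document: luminescence viability expressed relative to DMSO vehicle wells set as 100%.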
smiles,measurement,setting,value
NC1c2ccccc2OC12CCN(c1cnc3c(N4CCCc5ncccc54)n[nH]c3n1)CC2 (configuration not stated) + CCn1c(-c2cccnc2C(C)OC)c2c3cc(ccc31)N1CCOC(CC(NC(=O)C(C(C)C)N(C)C(=O)C3(F)CCN(C(=O)C#CC(C)(C)N(C)C)CC3)C(=O)N3CCCC(N3)C(=O)OCC(C)(C)C2)C1,IC50,second compound 0.000949 µM,> 10 µM
same,IC50,second compound 0.003 µM,> 10 µM
same,IC50,second compound 0.00949 µM,> 10 µM
same,IC50,second compound 0.03 µM,> 10 µM
same,IC50,second compound 0.0949 µM,> 10 µM
same,IC50,second compound 0.3 µM,> 10 µM
same,"viability, T/C","second compound 0.000949 µM, first compound 0.0316 µM",91.4%
same,"viability, T/C","second compound 0.000949 µM, first compound 0.1 µM",78.7%
same,"viability, T/C","second compound 0.000949 µM, first compound 0.316 µM",94.2%
same,"viability, T/C","second compound 0.000949 µM, first compound 1 µM",85.9%
same,"viability, T/C","second compound 0.000949 µM, first compound 3.16 µM",67.8%
same,"viability, T/C","second compound 0.000949 µM, first compound 10 µM",71.6%
same,"viability, T/C","second compound 0.003 µM, first compound 0.0316 µM",74.5%
same,"viability, T/C","second compound 0.003 µM, first compound 0.1 µM",89.4%
same,"viability, T/C","second compound 0.003 µM, first compound 0.316 µM",84.1%
same,"viability, T/C","second compound 0.003 µM, first compound 1 µM",85.5%
same,"viability, T/C","second compound 0.003 µM, first compound 3.16 µM",85.7%
same,"viability, T/C","second compound 0.003 µM, first compound 10 µM",70.2%
same,"viability, T/C","second compound 0.00949 µM, first compound 0.0316 µM",85%
same,"viability, T/C","second compound 0.00949 µM, first compound 0.1 µM",75.6%
same,"viability, T/C","second compound 0.00949 µM, first compound 0.316 µM",81.9%
same,"viability, T/C","second compound 0.00949 µM, first compound 1 µM",86.8%
same,"viability, T/C","second compound 0.00949 µM, first compound 3.16 µM",89.9%
same,"viability, T/C","second compound 0.00949 µM, first compound 10 µM",63.6%
same,"viability, T/C","second compound 0.03 µM, first compound 0.0316 µM",88.8%
same,"viability, T/C","second compound 0.03 µM, first compound 0.1 µM",86.8%
same,"viability, T/C","second compound 0.03 µM, first compound 0.316 µM",80.2%
same,"viability, T/C","second compound 0.03 µM, first compound 1 µM",71.3%
same,"viability, T/C","second compound 0.03 µM, first compound 3.16 µM",93.9%
same,"viability, T/C","second compound 0.03 µM, first compound 10 µM",61.1%
same,"viability, T/C","second compound 0.0949 µM, first compound 0.0316 µM",75%
same,"viability, T/C","second compound 0.0949 µM, first compound 0.1 µM",71.8%
same,"viability, T/C","second compound 0.0949 µM, first compound 0.316 µM",72.7%
same,"viability, T/C","second compound 0.0949 µM, first compound 1 µM",65.9%
same,"viability, T/C","second compound 0.0949 µM, first compound 3.16 µM",82.2%
same,"viability, T/C","second compound 0.0949 µM, first compound 10 µM",61.7%
same,"viability, T/C","second compound 0.3 µM, first compound 0.0316 µM",59.9%
same,"viability, T/C","second compound 0.3 µM, first compound 0.1 µM",76.7%
same,"viability, T/C","second compound 0.3 µM, first compound 0.316 µM",57%
same,"viability, T/C","second compound 0.3 µM, first compound 1 µM",70.2%
same,"viability, T/C","second compound 0.3 µM, first compound 3.16 µM",62.9%
same,"viability, T/C","second compound 0.3 µM, first compound 10 µM",61.7%

# From PubChem BioAssay AID2060906 (Molecular Pharmacology Branch, DTP, NCI, 2025)
